Experimental findings from ChEMBL document CHEMBL1933046, “Synthesis and antibacterial activity of a novel series of acylides active against community acquired respiratory pathogens” (2012) are described below.

In brackets after ≈: the same amount, converted by molar mass. Bounds are passed on as bounds.

Type in all cases: functional
Assay [1] deals with Streptococcus pyogenes. Description: Antibacterial activity against Streptococcus pyogenes 19615 by NCCLS method.
In assay [2] the test system is Streptococcus pneumoniae. Nature of the assay: Antibacterial activity against Streptococcus pneumoniae 49619 by NCCLS method.
Assay [3] concerns Streptococcus pneumoniae. Description: Antibacterial activity against Streptococcus pneumoniae 3579 expressing erm gene by NCCLS method.
For assay [4], the system named is Moraxella catarrhalis. Description: Antibacterial activity against Moraxella catarrhalis 8176 by NCCLS method.
In assay [5] the test system is Streptococcus pneumoniae. Nature of the assay: Antibacterial activity against Streptococcus pneumoniae 6303 by NCCLS method.
Assay [6] deals with Streptococcus pneumoniae. Description: Antibacterial activity against Streptococcus pneumoniae 994 expressing mef gene by NCCLS method.
Assay [7] deals with Haemophilus influenzae. Nature of the assay: Antibacterial activity against Haemophilus influenzae 38 by NCCLS method.
For assay [8], the system named is Streptococcus pneumoniae. Description: Antibacterial activity against Streptococcus pneumoniae by NCCLS method.

On to `C=CCN(C)[C@H]1C[C@@H](C)O[C@@H](O[C@@H]2[C@@H](C)[C@H](OC(=O)Cc3cccnc3)[C@@H](C)C(=O)O[C@H](CC)[C@@]3(C)OC(=O)N(CCCCn4ccc5cccnc54)[C@@H]3[C@@H](C)C(=O)[C@H](C)C[C@@]2(C)OC)[C@@H]1O`, for which the MIC was 0.03 µg/mL (≈ 0.0322 µM) in assay [1]; 0.06 µg/mL (≈ 0.0644 µM) in assay [2]; 8 µg/mL (≈ 8.58 µM) in assay [3]; 0.06 µg/mL (≈ 0.0644 µM) in assay [4]; 0.06 µg/mL (≈ 0.0644 µM) in assay [5]; 0.25 µg/mL (≈ 0.268 µM) in assay [6]. In assay [7], this compound yielded an MIC of less than 0.03 µg/mL.
On to `C=CCN(C)[C@H]1C[C@@H](C)O[C@@H](O[C@@H]2[C@@H](C)[C@H](OC(=O)Cc3ccccn3)[C@@H](C)C(=O)O[C@H](CC)[C@@]3(C)OC(=O)N(CCCCn4cnc5cncnc54)[C@@H]3[C@@H](C)C(=O)[C@H](C)C[C@@]2(C)OC)[C@@H]1O`, for which the MIC in assay [1] amounted to 0.06 µg/mL (≈ 0.0642 µM); in assay [2] it was 0.06 µg/mL (≈ 0.0642 µM); in assay [3] it was 0.25 µg/mL (≈ 0.268 µM); in assay [4] it was 0.125 µg/mL (≈ 0.134 µM); in assay [5] it was 0.06 µg/mL (≈ 0.0642 µM); in assay [6], 0.125 µg/mL (≈ 0.134 µM). For the same compound, in assay [7], the MIC is less than 0.06 µg/mL.
`C=CCN(C)[C@H]1C[C@@H](C)O[C@@H](O[C@@H]2[C@@H](C)[C@H](OC(=O)Cc3cccnc3)[C@@H](C)C(=O)O[C@H](CC)[C@@]3(C)OC(=O)N(CCCCn4cnc(-c5cccnc5)c4)[C@@H]3[C@@H](C)C(=O)[C@H](C)C[C@@]2(C)OC)[C@@H]1O`: the MIC turned out to be 0.06 µg/mL (≈ 0.0626 µM) in assay [1]; 0.03 µg/mL (≈ 0.0313 µM) in assay [2]; 1 µg/mL (≈ 1.04 µM) in assay [3]; 0.25 µg/mL (≈ 0.261 µM) in assay [4]; 0.03 µg/mL (≈ 0.0313 µM) in assay [5]; 0.125 µg/mL (≈ 0.13 µM) in assay [6]. Moreover, the MIC in assay [7] was 0.125 µg/mL (≈ 0.13 µM).
Regarding `CC[C@H]1OC(=O)[C@H](C)[C@@H](OC(=O)Cc2cccnc2)[C@H](C)[C@@H](O[C@@H]2O[C@H](C)C[C@H](N(C)CC)[C@H]2O)[C@](C)(OC)C[C@@H](C)C(=O)[C@H](C)[C@H]2N(CCCCn3cnc4ncccc43)C(=O)O[C@]12C`, the MIC in assay [1] was 0.03 µg/mL (≈ 0.0326 µM); in assay [2] it was 0.03 µg/mL (≈ 0.0326 µM); in assay [3], 2 µg/mL (≈ 2.17 µM); in assay [4] it was 0.25 µg/mL (≈ 0.271 µM); in assay [5] it was 0.06 µg/mL (≈ 0.0651 µM); in assay [6] it was 0.25 µg/mL (≈ 0.271 µM). The same compound showed an MIC in assay [7] of less than 0.03 µg/mL.
As for `C=CCN(C)[C@H]1C[C@@H](C)O[C@@H](O[C@@H]2[C@@H](C)[C@H](OC(=O)Cc3ccccn3)[C@@H](C)C(=O)O[C@H](CC)[C@@]3(C)OC(=O)N(CCCCn4cnc(-c5cccnc5)c4)[C@@H]3[C@@H](C)C(=O)[C@H](C)C[C@@]2(C)OC)[C@@H]1O`, the MIC in assay [1] turned out to be 0.008 µg/mL (≈ 0.00834 µM); in assay [2], 0.008 µg/mL (≈ 0.00834 µM); in assay [3], 0.25 µg/mL (≈ 0.261 µM); in assay [4], 0.125 µg/mL (≈ 0.13 µM); in assay [5], 0.015 µg/mL (≈ 0.0156 µM); in assay [6] it was 0.125 µg/mL (≈ 0.13 µM). Further, the MIC in assay [7] turned out to be 0.125 µg/mL (≈ 0.13 µM).
Turning to `C=CCN(C)[C@H]1C[C@@H](C)O[C@@H](O[C@@H]2[C@@H](C)[C@H](OC(=O)Cc3ccccn3)[C@@H](C)C(=O)O[C@H](CC)[C@@]3(C)OC(=O)N(CCCCn4cnc(-c5ccccc5)c4)[C@@H]3[C@@H](C)C(=O)[C@H](C)C[C@@]2(C)OC)[C@@H]1O`, the MIC in assay [1] was found to be 0.03 µg/mL (≈ 0.0313 µM); in assay [2] it was 0.03 µg/mL (≈ 0.0313 µM); in assay [3], 0.5 µg/mL (≈ 0.522 µM); in assay [4] it was 0.25 µg/mL (≈ 0.261 µM); in assay [5], 0.06 µg/mL (≈ 0.0626 µM); in assay [6] it was 0.25 µg/mL (≈ 0.261 µM). In assay [7], the MIC was less than 0.06 µg/mL.
Consider `CC[C@H]1OC(=O)[C@H](C)[C@@H](O[C@H]2C[C@@](C)(OC)[C@@H](O)[C@H](C)O2)[C@H](C)[C@@H](O[C@@H]2O[C@H](C)C[C@H](N(C)C)[C@H]2O)[C@](C)(O)C[C@@H](C)CN(C)[C@H](C)[C@@H](O)[C@]1(C)O` [AZITHROMYCIN], for which the MIC was determined as 0.25 µg/mL (≈ 0.334 µM) in assay [1]; 0.25 µg/mL (≈ 0.334 µM) in assay [2]; 16 µg/mL (≈ 21.4 µM) in assay [3]; 16 µg/mL (≈ 21.4 µM) in assay [4]; 0.25 µg/mL (≈ 0.334 µM) in assay [5]; 1 µg/mL (≈ 1.34 µM) in assay [6]. Also, the MIC in assay [7] is greater than 16 µg/mL.
Turning to `C=CCN(C)[C@H]1C[C@@H](C)O[C@@H](O[C@@H]2[C@@H](C)[C@H](OC(=O)Cc3ccccn3)[C@@H](C)C(=O)O[C@H](CC)[C@@]3(C)OC(=O)N(CCCCn4cnc(-c5cnc(N)nc5)c4)[C@@H]3[C@@H](C)C(=O)[C@H](C)C[C@@]2(C)OC)[C@@H]1O`, the MIC in assay [1] was 2 µg/mL (≈ 2.05 µM); in assay [2] it was 0.03 µg/mL (≈ 0.0308 µM); in assay [3] it was 0.125 µg/mL (≈ 0.128 µM); in assay [4] it was 0.125 µg/mL (≈ 0.128 µM); in assay [5] it was 0.03 µg/mL (≈ 0.0308 µM); in assay [6], 0.06 µg/mL (≈ 0.0615 µM).
With `C=CCN(C)[C@H]1C[C@@H](C)O[C@@H](O[C@@H]2[C@@H](C)[C@H](OC(=O)Cc3ccccn3)[C@@H](C)C(=O)O[C@H](CC)[C@@]3(C)OC(=O)N(CCCCn4cnc(-c5cccc(N)c5)c4)[C@@H]3[C@@H](C)C(=O)[C@H](C)C[C@@]2(C)OC)[C@@H]1O`, the MIC worked out at 0.03 µg/mL (≈ 0.0308 µM) in assay [1]; 0.03 µg/mL (≈ 0.0308 µM) in assay [2]; 0.125 µg/mL (≈ 0.128 µM) in assay [3]; 0.125 µg/mL (≈ 0.128 µM) in assay [4]; 0.03 µg/mL (≈ 0.0308 µM) in assay [5]; 0.06 µg/mL (≈ 0.0617 µM) in assay [6]. In assay [7], the MIC is less than 0.06 µg/mL.
Turning to `C=CCN(C)[C@H]1C[C@@H](C)O[C@@H](O[C@@H]2[C@@H](C)[C@H](OC(=O)Cc3ccccn3)[C@@H](C)C(=O)O[C@H](CC)[C@@]3(C)OC(=O)N(CCCCn4cnc(-c5cncnc5)c4)[C@@H]3[C@@H](C)C(=O)[C@H](C)C[C@@]2(C)OC)[C@@H]1O`, the MIC in assay [1] was determined as 0.03 µg/mL (≈ 0.0312 µM); in assay [2], 0.03 µg/mL (≈ 0.0312 µM); in assay [3], 0.25 µg/mL (≈ 0.26 µM); in assay [4] it was 0.125 µg/mL (≈ 0.13 µM); in assay [5], 0.03 µg/mL (≈ 0.0312 µM); in assay [6], 0.06 µg/mL (≈ 0.0625 µM). The same compound gave an MIC in assay [7] of less than 0.06 µg/mL.
In the case of `C=CCN(C)[C@H]1C[C@@H](C)O[C@@H](O[C@@H]2[C@@H](C)[C@H](OC(=O)Cc3ccccn3)[C@@H](C)C(=O)O[C@H](CC)[C@@]3(C)OC(=O)N(CCCCn4cnc5ccncc54)[C@@H]3[C@@H](C)C(=O)[C@H](C)C[C@@]2(C)OC)[C@@H]1O`, the MIC in assay [1] is 0.125 µg/mL (≈ 0.134 µM); in assay [2], 0.125 µg/mL (≈ 0.134 µM); in assay [3], 0.25 µg/mL (≈ 0.268 µM); in assay [4], 0.06 µg/mL (≈ 0.0643 µM); in assay [5] it was 0.125 µg/mL (≈ 0.134 µM); in assay [6], 0.125 µg/mL (≈ 0.134 µM). Besides, in assay [7], the MIC turned out to be 0.06 µg/mL (≈ 0.0643 µM).
For the compound `CC[C@H]1OC(=O)[C@H](C)[C@@H](OC(=O)Cc2cccc([N+](=O)[O-])c2)[C@H](C)[C@@H](O[C@@H]2O[C@H](C)C[C@H](N(C)C3CC3)[C@H]2O)[C@](C)(OC)C[C@@H](C)C(=O)[C@H](C)[C@@H](O)[C@]1(C)O`, in assay [8], the MIC was 16 µg/mL (≈ 20.5 µM).
Still for that read-out and setting: under `C=CCN(C)[C@H]1C[C@@H](C)O[C@@H](O[C@@H]2[C@@H](C)[C@H](OC(=O)Cc3cccnc3)[C@@H](C)C(=O)O[C@H](CC)[C@@](C)(O)[C@H](O)[C@@H](C)C(=O)[C@H](C)C[C@@]2(C)OC)[C@@H]1O` stands 0.25 µg/mL (≈ 0.34 µM).
In the case of `C=CCN(C)[C@H]1C[C@@H](C)O[C@@H](O[C@@H]2[C@@H](C)[C@H](OC(=O)Cc3ccccn3)[C@@H](C)C(=O)O[C@H](CC)[C@@]3(C)OC(=O)N[C@@H]3[C@@H](C)C(=O)[C@H](C)C[C@@]2(C)OC)[C@@H]1O`, the MIC was found to be 0.015 µg/mL (≈ 0.0197 µM) in assay [1]; 0.015 µg/mL (≈ 0.0197 µM) in assay [2]; 8 µg/mL (≈ 10.5 µM) in assay [3]; 1 µg/mL (≈ 1.32 µM) in assay [4]; 0.125 µg/mL (≈ 0.164 µM) in assay [5]; 0.125 µg/mL (≈ 0.164 µM) in assay [6].
For the compound `C=CCN(C)[C@H]1C[C@@H](C)O[C@@H](O[C@@H]2[C@@H](C)[C@H](OC(=O)Cc3cccc(F)c3)[C@@H](C)C(=O)O[C@H](CC)[C@@](C)(O)[C@H](O)[C@@H](C)C(=O)[C@H](C)C[C@@]2(C)OC)[C@@H]1O`, in assay [8], the MIC is 0.125 µg/mL (≈ 0.166 µM).
